The source of these data is patent publication US9271963B2, “Selective inhibitors of human corticosteroid synthases” (UNIVERSITAT DES SAARLANDES, priority 2005, dated 2016).

Test [1] deals with T1, CYP11B1 (Homo sapiens (Human), UniProt P15538). In words: cell-based. The note with it: NCI-H295R, read-out: NCI-H295R CYP11B1 RSS % inhibition.
For test [2], the target named is human CYP17 (Homo sapiens (Human), UniProt P05093). In words: CYP17 inhibition, membrane fraction of E. coli expressing human CYP17. The note with it: Table 1, progesterone 2.5 μM; for inhibition at 2.5 µM: inhibitor 2.5 μM, read-out: % Inhib. Human CYP17; for IC50: read-out: IC50 Human CYP17 (values in brackets). Format: biochemical.
Chain of human CYP17 (P05093 whole entry): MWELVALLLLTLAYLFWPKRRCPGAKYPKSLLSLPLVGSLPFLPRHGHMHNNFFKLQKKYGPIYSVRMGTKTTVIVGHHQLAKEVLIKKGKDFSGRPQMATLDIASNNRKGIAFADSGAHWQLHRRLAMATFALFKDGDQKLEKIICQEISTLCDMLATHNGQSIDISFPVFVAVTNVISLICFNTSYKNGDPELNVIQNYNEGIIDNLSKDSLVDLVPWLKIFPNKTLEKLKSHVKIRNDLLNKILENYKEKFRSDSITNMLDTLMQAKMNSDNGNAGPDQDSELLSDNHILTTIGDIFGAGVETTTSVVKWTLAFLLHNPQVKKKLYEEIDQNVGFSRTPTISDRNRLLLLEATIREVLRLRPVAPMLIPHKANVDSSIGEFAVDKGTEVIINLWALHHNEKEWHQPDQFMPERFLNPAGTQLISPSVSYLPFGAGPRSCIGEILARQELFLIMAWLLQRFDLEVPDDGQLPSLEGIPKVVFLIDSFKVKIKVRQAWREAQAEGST
Test [3] has as its target T1, CYP11B1. The note with it: NCI-H295R.
Test [4] concerns the target T2, CYP11B2 (Homo sapiens (Human), UniProt P19099). In words: cell-based. The note with it: NCI-H295R.
Test [5] deals with human placental CYP19 (Homo sapiens (Human), UniProt P11511). In words: CYP19 (aromatase) inhibition, human placental microsomes. Format: biochemical. The settings on record: Table 1, androstenedione 2.5 μM; for % Inhib. Human CYP19 (values in brackets): inhibitor concentration not given.
Chain of human placental CYP19 (P11511 whole entry): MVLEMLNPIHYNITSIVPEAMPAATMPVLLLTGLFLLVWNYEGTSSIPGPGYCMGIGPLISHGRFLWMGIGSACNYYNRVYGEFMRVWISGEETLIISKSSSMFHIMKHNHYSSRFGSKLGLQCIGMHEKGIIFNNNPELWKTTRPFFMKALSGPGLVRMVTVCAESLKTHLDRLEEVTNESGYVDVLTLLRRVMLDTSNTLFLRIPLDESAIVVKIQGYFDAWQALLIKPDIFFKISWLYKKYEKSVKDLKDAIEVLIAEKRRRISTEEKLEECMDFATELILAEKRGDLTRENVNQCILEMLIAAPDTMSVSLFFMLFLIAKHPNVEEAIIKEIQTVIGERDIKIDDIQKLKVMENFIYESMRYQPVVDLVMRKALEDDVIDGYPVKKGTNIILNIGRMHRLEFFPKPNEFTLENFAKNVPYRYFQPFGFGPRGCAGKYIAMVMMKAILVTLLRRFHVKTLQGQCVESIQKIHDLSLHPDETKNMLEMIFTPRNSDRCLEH
The test system of test [6] is steroid production in H295R cells. In words: cells. In kind it is cell-based, human. The settings on record: for aldosterone secretion: within 6 hours; for inhibition at 2.5 µM / IC50: Homo sapiens, NCI-H295R; for inhibition at 2.5 µM: inhibitor 2.5 μM.
Test [7] concerns the target T2, CYP11B2. In words: Screening test in transgenic fission yeast (S. pombe) expressing human CYP11B2. Format: cell-based.
For test [8], the target named is T2, CYP11B2. The test is described as follows: Inhibition test in V79 MZh11B2 cells (hamster fibroblasts expressing human CYP11B2). The settings on record: Table 1; deoxycorticosterone substrate 100 nM; read-out: IC50 value V79 11B2 hCYP11B2. In kind it is cell-based.
The target in test [9] is T1, CYP11B1. The test is described as follows: Inhibition test in V79 MZh11B1 cells (hamster fibroblasts expressing human CYP11B1). In kind it is cell-based.
The mark [10] stands for this setting: read-out: NCI-H295R CYP11B2 B % inhibition.
[11] abbreviates: read-out: NCI-H295R CYP11B2 DOC % inhibition.
[12] abbreviates: H295R, 6 h incubation, read-out: % inhibition of DHEA production.
Setting [13] is: H295R, 6 h incubation, read-out: % inhibition of aldosterone production.
The mark [14] stands for this setting: H295R, 6 h incubation, read-out: % inhibition of androstendione production.
[15] abbreviates: H295R, 6 h incubation, read-out: % inhibition of cortisol production.
The mark [16] stands for this setting: Table 1, S. pombe cells expressing human CYP11B2, deoxycorticosterone 100 nM, inhibitor 500 nM, read-out: % Inhib. Human hCYP11B2.
Setting [17] is: Table 1, deoxycorticosterone substrate 100 nM, read-out: IC50 value V79 11B1 hCYP11B1.
Setting [18] is: read-out: IC50 in V79MZh 11B1 cells (CYP11B1 inhibition).

Each structure is given as a SMILES string. Like-named read-outs stand apart in the source and are kept apart here.

T1 sequence (P15538 25-503): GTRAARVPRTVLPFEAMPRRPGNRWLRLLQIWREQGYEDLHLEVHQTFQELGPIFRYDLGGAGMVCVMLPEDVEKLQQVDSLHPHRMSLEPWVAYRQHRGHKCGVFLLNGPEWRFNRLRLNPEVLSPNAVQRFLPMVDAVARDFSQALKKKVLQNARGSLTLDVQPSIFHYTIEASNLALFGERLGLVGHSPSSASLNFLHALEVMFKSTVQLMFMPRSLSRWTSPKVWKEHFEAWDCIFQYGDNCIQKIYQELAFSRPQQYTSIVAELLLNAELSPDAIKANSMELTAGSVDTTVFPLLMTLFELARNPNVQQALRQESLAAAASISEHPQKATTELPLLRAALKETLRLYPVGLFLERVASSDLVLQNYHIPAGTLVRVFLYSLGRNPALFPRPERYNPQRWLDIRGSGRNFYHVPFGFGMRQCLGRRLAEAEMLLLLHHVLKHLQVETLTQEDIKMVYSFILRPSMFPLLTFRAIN
T2 sequence (P19099 25-503): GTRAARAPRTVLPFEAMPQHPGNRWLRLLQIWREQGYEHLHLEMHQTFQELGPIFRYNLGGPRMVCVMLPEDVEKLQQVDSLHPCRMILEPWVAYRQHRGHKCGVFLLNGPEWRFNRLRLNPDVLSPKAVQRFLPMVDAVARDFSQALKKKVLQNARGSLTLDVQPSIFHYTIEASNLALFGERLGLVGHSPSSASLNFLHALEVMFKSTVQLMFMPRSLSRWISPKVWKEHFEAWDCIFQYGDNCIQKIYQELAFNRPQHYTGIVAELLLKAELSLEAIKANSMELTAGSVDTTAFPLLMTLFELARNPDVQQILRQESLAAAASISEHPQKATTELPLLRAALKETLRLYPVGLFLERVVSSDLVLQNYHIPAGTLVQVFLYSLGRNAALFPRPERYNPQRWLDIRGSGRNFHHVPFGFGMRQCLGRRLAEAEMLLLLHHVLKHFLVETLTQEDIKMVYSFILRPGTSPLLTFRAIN

Take `c1cncc(-c2ccc3ccccc3c2)c1` [Compound 1, 3-(2-Naphthyl)pyridine]: the inhibition at 2.5 µM in test [1] came out at 43.4 ± 4.7%; in test [2], 40%; in test [4] (setting [10]), 45.6 ± 2.2%; in test [4] (setting [11]) it was 82.9 ± 0.9%. The “influence on CYP11B1 in comparison with fadrozole” value in test [3] was “clearly lower extent”.

By IC50 is commonly meant the midpoint of a concentration-inhibition curve. Turning to `COc1ccc2cc(-c3cccnc3)ccc2c1` [Compound 2, 3-(6-Methoxy-2-naphthyl)pyridine], the inhibition at 2.5 µM in test [1] stood at 48.5 ± 2.9%; in test [6] (setting [12]), 84.5 ± 2%; in [6] (setting [13]), 56.4 ± 3.5%; in test [6] (setting [14]), 84.6 ± 2%; in [6] (setting [15]), 78.6 ± 5.4%; in [4] (setting [10]) it was 49.5 ± 2.4%. For the same compound, the inhibition at 2.5 µM in test [4] (setting [11]) came out at 81.4 ± 6.6%. The IC50 in test [2] is 667 nM; in test [5] it was 586 nM; in test [6] (H295R, 6 h incubation, read-out: IC50 of DHEA production), under 1 nM; in [6] (H295R, 6 h incubation, read-out: IC50 of aldosterone production), 963 nM; in [6] (H295R, 6 h incubation, read-out: IC50 of androstendione production), under 1 nM; in [6] (H295R, 6 h incubation, read-out: IC50 of cortisol production) it was under 1 nM. Also, the “influence on CYP11B1 in comparison with fadrozole” value in test [3] is recorded as “clearly lower extent”. Besides, the “cortisol production compared with aldosterone production” value in test [6] (H295R model) is “cortisol production is inhibited more strongly than the aldosterone production”. Also, the “androsterone production (so in the source)” value in [6] (H295R, 6 h) is “inhibited only to a low extent”. Moreover, the aldosterone secretion entry in test [6] (H295R) is “significant concentration-dependent decrease”.

As to `Oc1ccc2cc(-c3cccnc3)ccc2c1` [Compound 3, 6-Pyridin-3-yl-2-naphthol], the inhibition at 0.5 µM in [7] (setting [16]) amounted to 88%. Besides, the inhibition at 2.5 µM in test [2] was 65%. For the same compound, the figures for the IC50 in [8] and in [9] (setting [17]) were 23 nM and 715 nM, respectively. Besides, in [5], the “% Inhib. Human CYP19 (values in brackets)” value (“% Inhib. Human CYP19” below) is “[61] %”.

As to `Brc1ccc2cc(-c3cccnc3)ccc2c1` [Compound 4, 3-(6-Bromo-2-naphthyl)pyridine], the inhibition at 0.5 µM in test [7] (setting [16]) turned out to be 85%. In addition, in test [2], the inhibition at 2.5 µM was determined as 46%. For the same compound, the concentration for half-maximal inhibition (IC50) in test [8] came out at 15 nM; in [9] (setting [17]), 899 nM. In addition, the “% Inhib. Human CYP19” value in [5] was “[33] %”.

Take `CCOc1ccc2cc(-c3cccnc3)ccc2c1` [Compound 5, 3-(6-Ethoxy-2-naphthyl)pyridine]: the inhibition at 0.5 µM in [7] (setting [16]) was 86%. For the same compound, the inhibition at 2.5 µM in test [2] came out at 53%. Further, the concentration for half-maximal inhibition (IC50) in test [8] stood at 12 nM; in test [5] it was 6640 nM; in [9] (setting [17]), 883 nM.

Take `N#Cc1ccc2cc(-c3cccnc3)ccc2c1` [Compound 8, 6-Pyridin-3-yl-2-naphthonitrile]: the inhibition at 0.5 µM in test [7] (setting [16]) was found to be 98%. Further, the values for the IC50 in test [2], in test [8] and in test [9] (setting [17]) were 686 nM, 3 nM and 691 nM, respectively. Further, the “% Inhib. Human CYP19” value in test [5] was “[44] %”.

For `COc1ccc2cc(-c3cccnc3)ccc2c1Cl` [Compound 9, 3-(5-Chloro-6-methoxy-2-naphthyl)pyridine], the inhibition at 0.5 µM in [7] (setting [16]) was 86%. In test [2], the inhibition at 2.5 µM came to 32%. In addition, the half-maximal inhibitory concentration (IC50) in test [8] amounted to 13 nM; in [5], 1800 nM; in test [9] (setting [17]), 569 nM.

For `COc1ccc2cc(-c3cccnc3)ccc2c1Br` [Compound 10, 3-(5-Bromo-6-methoxy-2-naphthyl)pyridine], the inhibition at 0.5 µM in [7] (setting [16]) worked out at 68%. Also, in [2], the inhibition at 2.5 µM is 38%. The figures for the 50% inhibitory concentration (IC50) in test [8], in test [5] and in test [9] (setting [17]) were 33 nM, 9110 nM and 1530 nM, respectively.

For the compound `COc1ccc2c(Cl)c(-c3cccnc3)ccc2c1Cl` [Compound 12, 3-(1,5-Dichloro-6-methoxy-2-naphthyl)pyridine], in test [7] (setting [16]), the inhibition at 0.5 µM amounted to 82%. The half-maximal inhibitory concentration (IC50) in [2] came out at 233 nM; in [8], 28 nM; in [5], 970 nM; in test [9] (setting [17]), 1540 nM.

On to `COc1ccc2ccc(-c3cccnc3)cc2c1` [Compound 13, 3-(7-Methoxy-2-naphthyl)pyridine], for which the inhibition at 0.5 µM in [7] (setting [16]) was found to be 46%.

Take `COc1ccc2ccc(-c3cccnc3)c(Cl)c2c1` [Compound 14, 3-(1-Chloro-7-methoxy-2-naphthyl)pyridine]: the inhibition at 0.5 µM in test [7] (setting [16]) worked out at 85%. The results for the half-maximal inhibitory concentration (IC50) in [2], in [8] and in [9] (setting [17]) were 27 nM, 29 nM and 771 nM, respectively. The “% Inhib. Human CYP19” value in test [5] is “[65] %”.

`COc1cc2ccccc2cc1-c1cccnc1` [Compound 15, 3-(3-Methoxy-2-naphthyl)pyridine]: the inhibition at 0.5 µM in test [7] (setting [16]) worked out at 38%.

Regarding `COC(=O)c1ccc2cc(-c3cccnc3)ccc2c1` [Compound 16, Methyl-6-pyridin-3-yl-2-naphthoate], in test [7] (setting [16]), the inhibition at 0.5 µM stood at 66%. The inhibition at 2.5 µM in test [2] worked out at 12%. Moreover, the IC50 in test [8] amounted to 73 nM; in [5], 1250 nM; in test [9] (setting [17]), 10500 nM.

Take `c1cncc(-c2cnc3ccccc3c2)c1` [Compound 19, 3-Pyridin-3-ylquinoline]: in test [7] (setting [16]), the inhibition at 0.5 µM is 40%.

As for `c1cncc(-c2ccc3ccccc3n2)c1` [Compound 20, 2-Pyridin-3-ylquinoline], the inhibition at 0.5 µM in [7] (setting [16]) turned out to be 53%.

Take `c1ccc2cc(-n3ccnc3)ccc2c1` [Compound 23, 1-(2-Naphthyl)-1H-imidazole]: the inhibition at 0.5 µM in [7] (setting [16]) is 80%. Besides, the inhibition at 2.5 µM in test [2] turned out to be 13%. Also, the 50% inhibitory concentration (IC50) in [8] worked out at 38 nM; in test [9] (setting [17]) it was 1050 nM.

Turning to `COc1cc2ccccc2cc1-n1ccnc1` [Compound 24, 1-(3-Methoxy-2-naphthyl)-1H-imidazole], the inhibition at 0.5 µM in test [7] (setting [16]) was found to be 86%. Moreover, the inhibition at 2.5 µM in test [2] turned out to be 4%. For the same compound, the concentration for half-maximal inhibition (IC50) was 40 nM in [8], 129 nM in test [5] and 5020 nM in test [9] (setting [17]).

`c1ccc2cc(-c3c[nH]cn3)ccc2c1` [Compound 27, 4(5)-(2-Naphthyl)-1H-imidazole]: the “% Inhib. Human hCYP11B2” value in test [7] (Table 1, S. pombe cells expressing human CYP11B2, deoxycorticosterone 100 nM, inhibitor 500 nM) was 41%. The IC50 in [9] (setting [17]) and in test [9] (setting [18]) was 206 nM each time.

As to `c1ccc2cc(-c3cnco3)ccc2c1` [Compound 29, 5-(2-Naphthyl)-1,3-oxazole], the “CYP11B2 inhibition in S. pombe” value in test [7] is “very low”. Also, in [7] (setting [16]), the inhibition at 0.5 µM was found to be 16%. The IC50 is 805 nM in test [9] (setting [17]) and 206 to 805 nM in test [9] (setting [18]).

As for `COc1ccc2cc(-c3cncnc3)ccc2c1` [Compound 30, 5-(6-Methoxy-2-naphthyl)pyrimidine], the inhibition at 0.5 µM in [7] (setting [16]) was found to be 46%.

Turning to `C1=C(n2ccnc2)CCc2ccccc21` [Compound 45, 1-(3,4-Dihydronaphthalene-2-yl)-1H-imidazole], in [7], the “CYP11B2 inhibition in S. pombe” value is reported as “very low”. Moreover, the inhibition at 0.5 µM in test [7] (Table 2, S. pombe cells expressing human CYP11B2, deoxycorticosterone 100 nM, inhibitor 500 nM, read-out: % Inhibition Human hCYP11B2) amounted to 34%.

As for `COc1ccc2c(c1)CCC(n1ccnc1)=C2` [Compound 46, 1-(6-Methoxy-3,4-dihydronaphthalene-2-yl)-1H-imidazole], the “CYP11B2 inhibition in S. pombe” value in test [7] is given as “very low”. Moreover, the inhibition at 0.5 µM in [7] (read-out: % Inhibition Human hCYP11B2) worked out at 35%. Also, the half-maximal inhibitory concentration (IC50) in test [9] (setting [18]) is 206 to 805 nM; in test [9] (read-out: IC50 value V79 11B1 hCY11B1), 763 nM.

As to `CC(=O)N1CCN(c2ccc(OCC3COC(Cn4ccnc4)(c4ccc(Cl)cc4Cl)O3)cc2)CC1` (stereo not shown) [Ketoconazole, reference compound], the aldosterone secretion entry in [6] (H295R) is listed as “significant concentration-dependent decrease”. In addition, the concentration for half-maximal inhibition (IC50) came out at 51.8 nM in test [6] (6 h, read-out: IC50 of DHEA production); 13100 nM in test [6] (6 h, read-out: IC50 of aldosterone production); 59.6 nM in [6] (6 h, read-out: IC50 of androstendione production); 155 nM in test [6] (6 h, read-out: IC50 of cortisol production). Moreover, the inhibition at 2.5 µM was determined as 94.4 ± 0.6% in test [6] (setting [12]), 33.3 ± 3.3% in test [6] (setting [13]), 89.2 ± 1.2% in test [6] (setting [14]) and 88.1 ± 1% in test [6] (setting [15]).
